Measured values taken from patent US20220125784A1, “METHODS AND COMPOUNDS FOR INHIBITION OF INACTIVATION OF VOLTAGE-GATED SODIUM CHANNELS” (SIMON FRASER UNIVERSITY, priority 2019, published 2022).
pIC50: −log10 of the molar value. Entries after “also recorded” stand apart in the source; their conditions may differ.

target: T1, WT Nav1.5-α subunits (Homo sapiens, UniProt Q14524); experiment: Whole-cell patch clamp, use-dependence (slow inactivation) protocol at 6 Hz in transiently transfected HEK293 cells; assay type: cell-based; settings: Hill curve slope
T1 construct: expressed in transfected cells; host or cells: HEK293 (transient transfection)
T1 sequence (Q14524 whole entry): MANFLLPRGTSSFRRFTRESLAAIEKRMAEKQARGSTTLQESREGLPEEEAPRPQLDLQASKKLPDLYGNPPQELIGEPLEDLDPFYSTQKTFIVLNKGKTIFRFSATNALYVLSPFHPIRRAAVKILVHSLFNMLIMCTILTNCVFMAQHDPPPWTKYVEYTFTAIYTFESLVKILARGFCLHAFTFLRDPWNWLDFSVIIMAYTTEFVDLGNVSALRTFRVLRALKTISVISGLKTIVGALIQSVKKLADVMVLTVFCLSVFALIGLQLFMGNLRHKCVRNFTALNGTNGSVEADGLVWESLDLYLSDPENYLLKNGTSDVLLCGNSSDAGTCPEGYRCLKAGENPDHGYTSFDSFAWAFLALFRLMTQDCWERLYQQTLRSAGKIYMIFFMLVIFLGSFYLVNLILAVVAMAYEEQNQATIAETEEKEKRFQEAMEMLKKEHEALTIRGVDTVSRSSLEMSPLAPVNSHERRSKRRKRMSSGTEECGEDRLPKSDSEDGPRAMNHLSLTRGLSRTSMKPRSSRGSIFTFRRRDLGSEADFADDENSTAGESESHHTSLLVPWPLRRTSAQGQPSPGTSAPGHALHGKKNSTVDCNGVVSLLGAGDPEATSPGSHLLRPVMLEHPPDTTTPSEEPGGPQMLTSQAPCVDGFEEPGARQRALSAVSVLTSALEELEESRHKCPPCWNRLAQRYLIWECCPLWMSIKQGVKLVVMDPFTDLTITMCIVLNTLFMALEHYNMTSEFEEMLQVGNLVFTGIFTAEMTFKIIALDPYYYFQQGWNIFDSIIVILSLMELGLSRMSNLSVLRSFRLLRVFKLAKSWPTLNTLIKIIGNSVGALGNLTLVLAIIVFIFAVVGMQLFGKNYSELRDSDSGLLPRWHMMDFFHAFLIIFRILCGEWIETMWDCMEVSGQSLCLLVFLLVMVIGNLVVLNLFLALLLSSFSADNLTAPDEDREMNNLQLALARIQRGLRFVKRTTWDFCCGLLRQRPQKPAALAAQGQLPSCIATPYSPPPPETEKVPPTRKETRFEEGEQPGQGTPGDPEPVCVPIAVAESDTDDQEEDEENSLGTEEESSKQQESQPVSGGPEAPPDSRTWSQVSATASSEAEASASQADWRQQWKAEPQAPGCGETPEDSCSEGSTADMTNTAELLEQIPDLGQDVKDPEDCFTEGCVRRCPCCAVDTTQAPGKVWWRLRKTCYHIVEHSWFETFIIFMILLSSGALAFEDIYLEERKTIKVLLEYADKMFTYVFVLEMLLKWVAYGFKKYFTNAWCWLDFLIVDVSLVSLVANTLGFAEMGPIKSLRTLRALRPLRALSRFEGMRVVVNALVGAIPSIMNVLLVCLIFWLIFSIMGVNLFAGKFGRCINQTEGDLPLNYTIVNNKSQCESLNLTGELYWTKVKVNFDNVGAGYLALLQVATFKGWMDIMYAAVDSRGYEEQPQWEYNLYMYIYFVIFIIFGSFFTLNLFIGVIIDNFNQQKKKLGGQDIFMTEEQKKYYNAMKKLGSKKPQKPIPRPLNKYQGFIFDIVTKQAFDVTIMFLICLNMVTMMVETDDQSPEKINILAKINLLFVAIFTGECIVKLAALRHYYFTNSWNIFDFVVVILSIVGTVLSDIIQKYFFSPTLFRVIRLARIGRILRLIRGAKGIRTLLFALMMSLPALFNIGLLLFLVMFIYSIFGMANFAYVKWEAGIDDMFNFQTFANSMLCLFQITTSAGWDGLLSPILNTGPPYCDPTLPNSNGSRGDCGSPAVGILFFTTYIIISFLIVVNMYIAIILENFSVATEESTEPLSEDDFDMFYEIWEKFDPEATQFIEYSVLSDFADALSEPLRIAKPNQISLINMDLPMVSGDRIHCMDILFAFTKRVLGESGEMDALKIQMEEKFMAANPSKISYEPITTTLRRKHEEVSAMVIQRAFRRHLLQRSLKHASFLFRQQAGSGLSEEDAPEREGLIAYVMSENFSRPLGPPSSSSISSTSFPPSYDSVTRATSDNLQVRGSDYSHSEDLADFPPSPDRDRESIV
Method: (§1) In one set of studies, we used a whole-cell patch clamp technique with single voltage-pulse protocols (FIGS. 3A-B) to characterize compounds ZINC38767171, ZINC39699427, ZINC40014265, ZINC64470729, ZINC64470737 and ZINC64470745. Whole-cell patch clamp was performed in extracellular solution containing (in mM): 140 NaCl, 4 KCl, 2 CaCl2, 1 MgCl2, and 10 HEPES (pH 7.4 adjusted with CsOH). The intracellular pipettes were dipped in dental wax and thermally polished to attain a resistance of 1.0-1.5 MΩ. The intracellular solutions contained (in mM): 130 CsF, 10 NaCl, 10 HEPES, and 10 EGTA titrated to pH 7.4. The six compounds, ZINC38767171, ZINC39699427, ZINC40014265, ZINC64470729, ZINC64470737 and ZINC64470745, chosen for electrophysiology characterization, ordered from MolPort (Easy compound ordering services), were diluted to 10 μM, 50 μM, and 100 μM in extracellular solution for biophysical assessment of channel gating.
(§2) The six compounds were screened against wild type (WT) Nav1.5-α subunits at the optimal physiological temperature of 37° C. Human Embryonic Kidney (HEK293) cells were transfected with WT Nav1.5-α subunits (transient transfections). The α subunits were co-expressed with the β1 subunit and eGFP (enhanced green fluorescence protein) in a 2:1:2 ratio, respectively.
Slow inactivation (SI) was indirectly determined by measuring use-dependence, which is a physiologically-relevant protocol. The protocol includes a series of 500 110 ms depolarizing pulses to 0 mV followed by a 55 ms-90 mV recovery pulse at a frequency 6 Hz. With repetitive depolarizations, Nav1.5 channels accumulate into slow inactivation.

Row | Structure (SMILES) | UDI Block Slope
1 | COc1cccc(NS(=O)(=O)c2ccc3c(c2)=NC(=O)N=3)c1 [ZINC64470729, N-(3-methoxyphenyl)-2-oxo-benzimidazole-5-sulfonamide] | −0.194
2 | CCc1ccccc1NS(=O)(=O)c1ccc2c(c1)=NC(=O)N=2 [ZINC64470737, N-(2-ethylphenyl)-2-oxo-benzimidazole-5-sulfonamide] | 0.710
3 | Cc1cc(F)ccc1NS(=O)(=O)c1ccc2c(c1)=NC(=O)N=2 [ZINC64470745, N-(4-fluoro-2-methyl-phenyl)-2-oxo-benzimidazole-5-sulfonamide] | 0.289

same assay, conditions: Hill curve; use-dependence at 6 Hz; read-out: UDI Block IC50

Row | Structure (SMILES) | pIC50
4 | COc1cccc(NS(=O)(=O)c2ccc3c(c2)=NC(=O)N=3)c1 [ZINC64470729, N-(3-methoxyphenyl)-2-oxo-benzimidazole-5-sulfonamide] | 4.39
5 | CCc1ccccc1NS(=O)(=O)c1ccc2c(c1)=NC(=O)N=2 [ZINC64470737, N-(2-ethylphenyl)-2-oxo-benzimidazole-5-sulfonamide] | 4.02
6 | Cc1cc(F)ccc1NS(=O)(=O)c1ccc2c(c1)=NC(=O)N=2 [ZINC64470745, N-(4-fluoro-2-methyl-phenyl)-2-oxo-benzimidazole-5-sulfonamide] | 3.05

target: T1, WT Nav1.5-α subunits; experiment: Whole-cell patch clamp, single voltage-pulse protocol (peak INa, conductance, fast inactivation) in transiently transfected HEK293 cells; assay type: cell-based; settings: 10 μM
Method: as §1, §2
Conductance was measured by a protocol that depolarized the membrane from −100 mV to +80 mV in increments of +5 mV for 19 ms. Prior to the test pulse, channels were allowed to recover from fast inactivation at −130 mV for 197 ms. The tested compounds had no effect on the conductance midpoint (FIGS. 6A-F).
At voltages greater than −50 mV, the fast inactivation T values were calculated from the mono-exponential fit to the decay of sodium current.

Row | Structure (SMILES) | % Block −20 mV [%] | fast inactivation onset time constant FI +10 mV [ms] | fast inactivation onset time constant FI −10 mV [ms] | fast inactivation onset time constant FI −30 mV [ms] | fast inactivation onset time constant FI −50 mV [ms]
7 | COc1cccc(NS(=O)(=O)c2ccc3c(c2)=NC(=O)N=3)c1 [ZINC64470729, N-(3-methoxyphenyl)-2-oxo-benzimidazole-5-sulfonamide] | −22.68 | 0.26 ± 0.04 | 0.40 ± 0.08 | 0.70 ± 0.14 | 1.67 ± 0.21
8 | CCc1ccccc1NS(=O)(=O)c1ccc2c(c1)=NC(=O)N=2 [ZINC64470737, N-(2-ethylphenyl)-2-oxo-benzimidazole-5-sulfonamide] | −22.45 | 0.31 ± 0.06 | 0.41 ± 0.07 | 0.66 ± 0.09 | 1.37 ± 0.31
9 | Cc1cc(F)ccc1NS(=O)(=O)c1ccc2c(c1)=NC(=O)N=2 [ZINC64470745, N-(4-fluoro-2-methyl-phenyl)-2-oxo-benzimidazole-5-sulfonamide] | −23.71 | 0.27 ± 0.03 | 0.37 ± 0.03 | 0.66 ± 0.04 | 2.12 ± 0.34

same assay, conditions: 10 μM; normalized peak INa; 37° C.

Row | Structure (SMILES) | Peak INa −20 mV
10 | COc1cccc(NS(=O)(=O)c2ccc3c(c2)=NC(=O)N=3)c1 [ZINC64470729, N-(3-methoxyphenyl)-2-oxo-benzimidazole-5-sulfonamide] | −0.75 ± 0.05
11 | CCc1ccccc1NS(=O)(=O)c1ccc2c(c1)=NC(=O)N=2 [ZINC64470737, N-(2-ethylphenyl)-2-oxo-benzimidazole-5-sulfonamide] | −0.76 ± 0.13
12 | Cc1cc(F)ccc1NS(=O)(=O)c1ccc2c(c1)=NC(=O)N=2 [ZINC64470745, N-(4-fluoro-2-methyl-phenyl)-2-oxo-benzimidazole-5-sulfonamide] | −0.74 ± 0.06

same assay, conditions: 50 μM

Row | Structure (SMILES) | % Block −20 mV [%] | fast inactivation onset time constant FI +10 mV [ms] | fast inactivation onset time constant FI −10 mV [ms] | fast inactivation onset time constant FI −30 mV [ms] | fast inactivation onset time constant FI −50 mV [ms]
13 | COc1cccc(NS(=O)(=O)c2ccc3c(c2)=NC(=O)N=3)c1 [ZINC64470729, N-(3-methoxyphenyl)-2-oxo-benzimidazole-5-sulfonamide] | −25.77 | 0.26 ± 0.02 | 0.40 ± 0.03 | 0.75 ± 0.07 | 1.97 ± 0.29
14 | CCc1ccccc1NS(=O)(=O)c1ccc2c(c1)=NC(=O)N=2 [ZINC64470737, N-(2-ethylphenyl)-2-oxo-benzimidazole-5-sulfonamide] | −40.82 | 0.39 ± 0.02 | 0.64 ± 0.08 | 1.02 ± 0.13 | 1.88 ± 0.27
15 | Cc1cc(F)ccc1NS(=O)(=O)c1ccc2c(c1)=NC(=O)N=2 [ZINC64470745, N-(4-fluoro-2-methyl-phenyl)-2-oxo-benzimidazole-5-sulfonamide] | −12.37 | 0.25 ± 0.02 | 0.37 ± 0.03 | 0.63 ± 0.05 | 1.75 ± 0.34

same assay, conditions: 50 μM; normalized peak INa; 37° C.

Row | Structure (SMILES) | Peak INa −20 mV
16 | COc1cccc(NS(=O)(=O)c2ccc3c(c2)=NC(=O)N=3)c1 [ZINC64470729, N-(3-methoxyphenyl)-2-oxo-benzimidazole-5-sulfonamide] | −0.72 ± 0.06
17 | CCc1ccccc1NS(=O)(=O)c1ccc2c(c1)=NC(=O)N=2 [ZINC64470737, N-(2-ethylphenyl)-2-oxo-benzimidazole-5-sulfonamide] | −0.58 ± 0.10
18 | Cc1cc(F)ccc1NS(=O)(=O)c1ccc2c(c1)=NC(=O)N=2 [ZINC64470745, N-(4-fluoro-2-methyl-phenyl)-2-oxo-benzimidazole-5-sulfonamide] | −0.85 ± 0.08

same assay, conditions: 100 μM

Row | Structure (SMILES) | % Block −20 mV [%] | fast inactivation onset time constant FI +10 mV [ms] | fast inactivation onset time constant FI −10 mV [ms] | fast inactivation onset time constant FI −30 mV [ms] | fast inactivation onset time constant FI −50 mV [ms]
19 | COc1cccc(NS(=O)(=O)c2ccc3c(c2)=NC(=O)N=3)c1 [ZINC64470729, N-(3-methoxyphenyl)-2-oxo-benzimidazole-5-sulfonamide] | −38.14 | 0.23 ± 0.03 | 0.39 ± 0.02 | 0.76 ± 0.09 | 1.71 ± 0.22
20 | CCc1ccccc1NS(=O)(=O)c1ccc2c(c1)=NC(=O)N=2 [ZINC64470737, N-(2-ethylphenyl)-2-oxo-benzimidazole-5-sulfonamide] | −74.49 | 0.49 ± 0.00 | 0.66 ± 0.00 | 0.96 ± 0.00 | 1.82 ± 0.00
21 | Cc1cc(F)ccc1NS(=O)(=O)c1ccc2c(c1)=NC(=O)N=2 [ZINC64470745, N-(4-fluoro-2-methyl-phenyl)-2-oxo-benzimidazole-5-sulfonamide] | −24.74 | 0.28 ± 0.04 | 0.45 ± 0.07 | 0.81 ± 0.12 | 1.79 ± 0.20

same assay, conditions: 100 μM; normalized peak INa; 37° C.

Row | Structure (SMILES) | Peak INa −20 mV
22 | COc1cccc(NS(=O)(=O)c2ccc3c(c2)=NC(=O)N=3)c1 [ZINC64470729, N-(3-methoxyphenyl)-2-oxo-benzimidazole-5-sulfonamide] | −0.60 ± 0.26
23 | CCc1ccccc1NS(=O)(=O)c1ccc2c(c1)=NC(=O)N=2 [ZINC64470737, N-(2-ethylphenyl)-2-oxo-benzimidazole-5-sulfonamide] | −0.25 ± 0.00
24 | Cc1cc(F)ccc1NS(=O)(=O)c1ccc2c(c1)=NC(=O)N=2 [ZINC64470745, N-(4-fluoro-2-methyl-phenyl)-2-oxo-benzimidazole-5-sulfonamide] | −0.73 ± 0.04

same assay, conditions: Hill curve slope

Row | Structure (SMILES) | Peak INa Slope
25 | COc1cccc(NS(=O)(=O)c2ccc3c(c2)=NC(=O)N=3)c1 [ZINC64470729, N-(3-methoxyphenyl)-2-oxo-benzimidazole-5-sulfonamide] | 0.389
26 | CCc1ccccc1NS(=O)(=O)c1ccc2c(c1)=NC(=O)N=2 [ZINC64470737, N-(2-ethylphenyl)-2-oxo-benzimidazole-5-sulfonamide] | 14.37
27 | Cc1cc(F)ccc1NS(=O)(=O)c1ccc2c(c1)=NC(=O)N=2 [ZINC64470745, N-(4-fluoro-2-methyl-phenyl)-2-oxo-benzimidazole-5-sulfonamide] | 16.06

same assay, conditions: Hill curve; single voltage-pulse protocol

Row | Structure (SMILES) | pIC50
28 | COc1cccc(NS(=O)(=O)c2ccc3c(c2)=NC(=O)N=3)c1 [ZINC64470729, N-(3-methoxyphenyl)-2-oxo-benzimidazole-5-sulfonamide] | 4.46
29 | CCc1ccccc1NS(=O)(=O)c1ccc2c(c1)=NC(=O)N=2 [ZINC64470737, N-(2-ethylphenyl)-2-oxo-benzimidazole-5-sulfonamide] | 5.01
30 | Cc1cc(F)ccc1NS(=O)(=O)c1ccc2c(c1)=NC(=O)N=2 [ZINC64470745, N-(4-fluoro-2-methyl-phenyl)-2-oxo-benzimidazole-5-sulfonamide] | 6.03

same assay, conditions: attained at concentrations above 10 μM

Row | Structure (SMILES) | plateau of drug block on sodium current [%]
31 | Cc1cc(F)ccc1NS(=O)(=O)c1ccc2c(c1)=NC(=O)N=2 [ZINC64470745, N-(4-fluoro-2-methyl-phenyl)-2-oxo-benzimidazole-5-sulfonamide] | −20

same assay, conditions: open-state voltages between −30 and +10 mV

Row | Structure (SMILES) | effect on fast inactivation kinetics
32 | COc1cccc(NS(=O)(=O)c2ccc3c(c2)=NC(=O)N=3)c1 [ZINC64470729, N-(3-methoxyphenyl)-2-oxo-benzimidazole-5-sulfonamide] | significantly decelerated
33 | CCc1ccccc1NS(=O)(=O)c1ccc2c(c1)=NC(=O)N=2 [ZINC64470737, N-(2-ethylphenyl)-2-oxo-benzimidazole-5-sulfonamide] | significantly decelerated; also recorded: decelerates fast inactivation kinetics the most
34 | Cc1cc(F)ccc1NS(=O)(=O)c1ccc2c(c1)=NC(=O)N=2 [ZINC64470745, N-(4-fluoro-2-methyl-phenyl)-2-oxo-benzimidazole-5-sulfonamide] | significantly decelerated

same assay, conditions: single voltage-pulse protocol

Row | Structure (SMILES) | effect on peak INa
35 | Cc1cc(F)ccc1NS(=O)(=O)c1ccc2c(c1)=NC(=O)N=2 [ZINC64470745, N-(4-fluoro-2-methyl-phenyl)-2-oxo-benzimidazole-5-sulfonamide] | blocked peak INa the least; also recorded: does not reduce peak Na at concentrations above 10 μM
